*1 amine or outer side, *2 acyl side, *3 side chain or, on linkers, in order; H or OH if unused. Where a SMILES comes first, the peptide text is derived from it. Bridges are numbered along the chain shown (N, C = ends). Roman numbers before positions name the chains, in order. [ ]: non-standard residue; d: D form. Actinocin(9to1) = Cc1c2oc3c(C)ccc(C(=O)[*:1])c3nc-2c(C(=O)[*:2])c(N)c1=O; NMeV = CN[C@H](C(=O)O)C(C)C; Sar = CNCC(=O)O
Experiments:
[1] = system: nuclear β-catenin in C2C12 cells; test: cells; format: cell-based; conditions: for WntCondMedia_bCatenin C2C12 IC50/EC50: assay number 5
[2] = system: alkaline phosphatase (ALP) activity in C2C12 cells; format: cell-based; conditions: concentration response; for WntCondMedia_Alk Phos C2C12 IC50/EC50: assay number 6
[3] = system: ECFC/ADSC co-culture cell nuclei number
HeLa cells = test: cells; format: cell-based; conditions: for Hela CellCycMod PI 2N IC50/EC50: assay number 14; for Hela CellCycMod PI S Phase IC50/EC50: assay number 15; for Hela CellCycMod PI 4N IC50/EC50: assay number 16; for Hela CellCycMod PI MI IC50/EC50: assay number 17; for Hela CellCycMod PI Cell Number IC50/EC50: assay number 18
[4] = system: endothelial tube formation in co-cultures of ECFCs and ADSCs treated with VEGF; test: cells; format: cell-based, human
hp70S6K1 (RPS6KB1) = target: T1, hp70S6K1 (RPS6KB1) (Homo sapiens, UniProt P23443); test: Cerep LANCE kinase assay hp70S6K1 (S1 assay 31); format: biochemical; conditions: read-out: p70S6K1
T1 construct: purchased Cerep (LANCE kinase assay platform, contract assay)
T1 sequence (P23443 whole entry): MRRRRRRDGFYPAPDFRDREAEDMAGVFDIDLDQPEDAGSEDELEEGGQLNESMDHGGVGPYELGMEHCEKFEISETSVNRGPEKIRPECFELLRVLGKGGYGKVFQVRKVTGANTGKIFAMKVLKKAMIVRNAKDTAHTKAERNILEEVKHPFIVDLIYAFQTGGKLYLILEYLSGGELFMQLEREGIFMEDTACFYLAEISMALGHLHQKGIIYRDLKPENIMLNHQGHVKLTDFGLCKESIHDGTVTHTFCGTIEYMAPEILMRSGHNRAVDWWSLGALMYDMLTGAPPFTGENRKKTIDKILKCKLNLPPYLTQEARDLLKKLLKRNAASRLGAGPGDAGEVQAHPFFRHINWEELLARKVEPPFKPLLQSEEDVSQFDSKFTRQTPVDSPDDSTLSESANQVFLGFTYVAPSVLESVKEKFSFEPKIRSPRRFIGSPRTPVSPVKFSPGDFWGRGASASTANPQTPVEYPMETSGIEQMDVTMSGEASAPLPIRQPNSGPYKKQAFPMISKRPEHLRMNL

Colo320 = test: cells; format: cell-based; conditions: basal; read-out: Basal_Viability ATP Colo 320
[5] = system: HCT116 cells treated with a GSK3β inhibitor; test: cells; format: cell-based; conditions: GSK3b inhibitor pretreated; read-out: GSK3b inh pretreated_Viability ATP HCT116
NCI-H716 cells = test: cells; format: cell-based, Human
hJAK2 = target: T2, hJAK2 (Homo sapiens, UniProt O60674); test: Cerep LANCE kinase assay hJAK2 (S1 assay 33); format: biochemical; conditions: read-out: JAK2
T2 construct: purchased Cerep (LANCE kinase assay platform, contract assay)
T2 sequence (O60674 whole entry): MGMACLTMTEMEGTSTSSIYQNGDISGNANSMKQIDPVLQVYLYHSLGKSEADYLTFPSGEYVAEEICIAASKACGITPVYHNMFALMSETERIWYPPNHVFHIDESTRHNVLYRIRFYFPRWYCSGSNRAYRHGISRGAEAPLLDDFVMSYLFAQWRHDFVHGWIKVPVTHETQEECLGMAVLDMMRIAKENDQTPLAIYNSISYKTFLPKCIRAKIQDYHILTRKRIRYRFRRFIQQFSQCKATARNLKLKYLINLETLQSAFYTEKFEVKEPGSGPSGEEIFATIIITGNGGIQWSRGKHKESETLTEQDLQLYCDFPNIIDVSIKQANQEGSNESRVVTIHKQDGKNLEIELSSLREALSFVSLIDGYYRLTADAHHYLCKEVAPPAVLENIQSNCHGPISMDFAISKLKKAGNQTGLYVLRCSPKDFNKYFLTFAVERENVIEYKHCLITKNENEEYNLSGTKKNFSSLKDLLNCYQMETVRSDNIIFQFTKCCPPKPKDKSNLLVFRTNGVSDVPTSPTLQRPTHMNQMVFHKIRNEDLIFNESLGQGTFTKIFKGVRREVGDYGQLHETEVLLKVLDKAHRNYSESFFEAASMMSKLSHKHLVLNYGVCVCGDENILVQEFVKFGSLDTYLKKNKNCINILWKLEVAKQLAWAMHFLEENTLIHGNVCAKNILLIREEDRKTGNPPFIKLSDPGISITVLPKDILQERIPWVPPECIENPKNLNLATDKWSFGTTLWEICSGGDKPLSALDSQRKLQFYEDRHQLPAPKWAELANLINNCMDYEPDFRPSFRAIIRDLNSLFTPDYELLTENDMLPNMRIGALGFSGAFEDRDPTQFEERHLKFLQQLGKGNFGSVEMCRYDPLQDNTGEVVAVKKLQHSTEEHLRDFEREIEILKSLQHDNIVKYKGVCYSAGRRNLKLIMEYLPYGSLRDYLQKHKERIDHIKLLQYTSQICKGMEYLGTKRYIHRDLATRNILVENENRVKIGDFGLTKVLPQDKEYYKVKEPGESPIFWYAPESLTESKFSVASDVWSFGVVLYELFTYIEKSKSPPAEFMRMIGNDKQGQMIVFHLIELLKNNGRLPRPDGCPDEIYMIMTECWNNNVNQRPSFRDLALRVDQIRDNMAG

STC-1 cell line = format: cell-based, mouse
SW480 = test: cells; format: cell-based; conditions: basal; read-out: Basal_Viability ATP SW480
hFLT3 = target: T3, hFLT3 (Homo sapiens, UniProt P36888); test: Cerep LANCE kinase assay hFLT3 (S1 assay 35); format: biochemical; conditions: read-out: FLT3
T3 construct: purchased Cerep (LANCE kinase assay platform, contract assay)
T3 sequence (P36888 27-993): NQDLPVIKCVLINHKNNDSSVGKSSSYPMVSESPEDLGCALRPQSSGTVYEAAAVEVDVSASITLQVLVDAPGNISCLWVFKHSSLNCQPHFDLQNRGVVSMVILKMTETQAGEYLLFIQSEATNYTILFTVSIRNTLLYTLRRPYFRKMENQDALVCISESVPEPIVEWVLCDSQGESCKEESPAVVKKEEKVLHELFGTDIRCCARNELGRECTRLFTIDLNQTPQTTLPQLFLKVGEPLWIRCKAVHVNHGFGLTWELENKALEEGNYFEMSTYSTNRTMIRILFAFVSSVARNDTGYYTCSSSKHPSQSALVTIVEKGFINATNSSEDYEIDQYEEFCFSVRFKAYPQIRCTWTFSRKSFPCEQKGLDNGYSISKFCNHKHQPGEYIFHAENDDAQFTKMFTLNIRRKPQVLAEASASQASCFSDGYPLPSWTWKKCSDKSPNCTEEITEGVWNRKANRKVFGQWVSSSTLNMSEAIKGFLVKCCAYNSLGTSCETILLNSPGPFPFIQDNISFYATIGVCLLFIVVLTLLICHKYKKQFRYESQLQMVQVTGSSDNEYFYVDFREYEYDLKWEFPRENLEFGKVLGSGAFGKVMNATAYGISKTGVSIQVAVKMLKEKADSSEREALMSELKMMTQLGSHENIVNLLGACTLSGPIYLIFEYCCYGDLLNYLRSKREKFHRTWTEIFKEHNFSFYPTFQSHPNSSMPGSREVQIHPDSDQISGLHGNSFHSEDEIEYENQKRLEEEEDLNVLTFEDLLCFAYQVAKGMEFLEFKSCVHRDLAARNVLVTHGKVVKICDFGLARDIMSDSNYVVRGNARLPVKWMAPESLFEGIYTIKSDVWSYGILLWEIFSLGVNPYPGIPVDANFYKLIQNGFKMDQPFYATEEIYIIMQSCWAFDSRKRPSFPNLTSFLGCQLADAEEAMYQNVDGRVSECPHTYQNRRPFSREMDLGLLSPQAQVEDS

DLD-1 = test: cells; format: cell-based; conditions: basal; read-out: Basal_Viability ATP DLD-1
hKDR = target: T4, hKDR (Homo sapiens, UniProt P35968); test: Cerep LANCE kinase assay hKDR (S1 assay 32); format: biochemical; conditions: read-out: KDR
T4 construct: purchased Cerep (LANCE kinase assay platform, contract assay)
T4 sequence (P35968 20-1356): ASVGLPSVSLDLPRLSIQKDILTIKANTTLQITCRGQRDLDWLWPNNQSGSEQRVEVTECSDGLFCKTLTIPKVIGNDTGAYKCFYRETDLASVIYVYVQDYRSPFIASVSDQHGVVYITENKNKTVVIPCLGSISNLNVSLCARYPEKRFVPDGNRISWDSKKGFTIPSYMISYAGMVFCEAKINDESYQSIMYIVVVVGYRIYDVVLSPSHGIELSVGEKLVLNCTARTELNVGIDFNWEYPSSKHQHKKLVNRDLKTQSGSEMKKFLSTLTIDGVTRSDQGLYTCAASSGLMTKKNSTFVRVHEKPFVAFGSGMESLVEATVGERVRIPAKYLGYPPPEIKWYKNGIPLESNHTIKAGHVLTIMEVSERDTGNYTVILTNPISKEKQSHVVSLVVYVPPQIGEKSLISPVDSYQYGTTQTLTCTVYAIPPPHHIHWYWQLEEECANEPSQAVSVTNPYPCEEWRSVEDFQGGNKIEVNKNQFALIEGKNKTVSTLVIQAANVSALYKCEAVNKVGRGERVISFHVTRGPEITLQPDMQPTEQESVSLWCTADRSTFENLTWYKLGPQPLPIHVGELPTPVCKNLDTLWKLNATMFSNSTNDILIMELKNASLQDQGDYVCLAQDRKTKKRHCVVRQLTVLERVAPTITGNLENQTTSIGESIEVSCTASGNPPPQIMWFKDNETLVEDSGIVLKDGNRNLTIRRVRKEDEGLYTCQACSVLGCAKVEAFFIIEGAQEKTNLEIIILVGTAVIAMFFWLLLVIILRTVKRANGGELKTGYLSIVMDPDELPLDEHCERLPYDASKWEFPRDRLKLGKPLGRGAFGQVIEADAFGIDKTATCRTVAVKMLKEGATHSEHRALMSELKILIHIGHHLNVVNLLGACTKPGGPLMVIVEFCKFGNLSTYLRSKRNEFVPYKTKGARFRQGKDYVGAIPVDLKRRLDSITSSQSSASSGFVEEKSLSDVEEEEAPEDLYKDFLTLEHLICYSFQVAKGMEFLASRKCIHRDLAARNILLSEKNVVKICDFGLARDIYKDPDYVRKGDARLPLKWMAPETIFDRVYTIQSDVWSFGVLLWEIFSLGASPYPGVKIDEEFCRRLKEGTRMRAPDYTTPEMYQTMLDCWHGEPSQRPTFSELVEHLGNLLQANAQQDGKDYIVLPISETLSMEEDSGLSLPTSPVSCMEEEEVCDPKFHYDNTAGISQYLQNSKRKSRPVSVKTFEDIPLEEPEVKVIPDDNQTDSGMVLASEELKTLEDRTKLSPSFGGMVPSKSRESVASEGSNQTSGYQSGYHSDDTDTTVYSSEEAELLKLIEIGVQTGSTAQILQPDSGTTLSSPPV

SNU-C1 = test: cells; format: cell-based; conditions: basal; read-out: Basal_Viability ATP SNU-C1
hGSK3b = target: T5, hGSK3b (Homo sapiens, UniProt P49841); test: Cerep LANCE kinase assay hGSK3b (S1 assay 34); format: biochemical; conditions: read-out: GSK3b
T5 construct: purchased Cerep (LANCE kinase assay platform, contract assay)
T5 sequence (P49841 whole entry): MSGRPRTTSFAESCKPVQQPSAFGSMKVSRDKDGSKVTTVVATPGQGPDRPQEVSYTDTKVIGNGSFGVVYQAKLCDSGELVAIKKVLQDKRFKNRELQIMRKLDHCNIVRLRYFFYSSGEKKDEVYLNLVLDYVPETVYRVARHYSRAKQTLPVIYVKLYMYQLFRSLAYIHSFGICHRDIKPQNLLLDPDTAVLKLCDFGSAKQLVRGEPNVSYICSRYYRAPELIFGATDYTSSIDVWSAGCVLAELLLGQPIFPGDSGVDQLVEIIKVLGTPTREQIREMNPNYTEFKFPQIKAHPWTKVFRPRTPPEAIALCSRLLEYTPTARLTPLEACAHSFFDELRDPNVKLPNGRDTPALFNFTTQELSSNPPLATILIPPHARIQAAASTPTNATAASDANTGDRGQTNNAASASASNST

HCT116 = test: cells; format: cell-based; conditions: basal; read-out: Basal_Viability ATP HCT116
HT-29 = test: cells; format: cell-based; conditions: basal; read-out: Basal_Viability ATP HT-29
INS-1E cells = test: cells; format: cell-based, rat; conditions: IC50 / EC50; INS-1E; read-out: Insulin Secretion

Row | SMILES | WntCondMedia_bCatenin C2C12 IC50/EC50 ([1]; concentration response) [µM] | WntCondMedia_Alk Phos C2C12 IC50/EC50 [2] [µM] | VEGF_ADSC\ECFC Angio Hoechst NucArea IC50/EC50 [3] [µM] | VEGF_ADSC\ECFC Angio CD31 TubeArea IC50/EC50 [4] [µM] | Hela CellCycMod PI 2N IC50/EC50 (HeLa cells; 2N) [µM] | Hela CellCycMod PI 4N IC50/EC50 (HeLa cells; 4N) [µM] | Hela CellCycMod PI MI IC50/EC50 (HeLa cells; MI) [µM] | Hela CellCycMod PI Cell Number IC50/EC50 (HeLa cells) [µM] | further results
1 | CCCCCCCCCCCCCCC[C@H](O)[C@@H](N)CO [NCGC00015362-05] | > 20 | > 20 | – | – | – | – | – | – | –
2 | CCCCc1ccc2nc(NC(=O)OC)[nH]c2c1 [NCGC00016706-07] | – | – | – | – | – | – | – | – | IC50/EC50, VEGF_ADSC\ECFC Angio Hoechst NucArea (assay number 3) [3]: > 10 µM; IC50/EC50, WntCondMedia_bCatenin C2C12 (assay number 5) ([1]; concentration response): 0.0336 µM; IC50/EC50, WntCondMedia_Alk Phos C2C12 (assay number 6) [2]: 0.0682 µM; IC50/EC50, Hela CellCycMod PI 2N (assay number 14) (HeLa cells; 2N): 0.0104 µM; IC50/EC50, Hela CellCycMod PI 4N (assay number 16) (HeLa cells; 4N): 0.01062 µM; IC50/EC50, Hela CellCycMod PI Cell Number (assay number 18) (HeLa cells; Cell Number): 0.00566 µM; IC50/EC50, Hela CellCycMod PI MI (assay number 17) (HeLa cells; MI): 0.00717 µM; IC50/EC50, Hela CellCycMod PI S Phase (assay number 15) (HeLa cells; S Phase): > 10 µM; IC50/EC50, VEGF_ADSC\ECFC Angio CD31 TubeArea (assay number 2) [4]: 0.053 µM
3 | CN[C@@H]1C[C@@H](c2ccc(Cl)c(Cl)c2)c2ccccc21 [NCGC00025223-04] | > 20 | > 20 | > 10 | > 10 | – | – | – | – | –
4 | Cl.O[C@@H](c1cc(C(F)(F)F)nc2c(C(F)(F)F)cccc12)[C@H]1CCCCN1 [NCGC00161831-04] | > 20 | > 20 | 8.609 | > 10 | – | – | – | – | –
5 | CCCCCCCCCCOCC(O)CN (centres unmarked) [NCGC00166070-02] | > 20 | > 20 | > 10 | 6.5465 | > 10 | > 10 | > 10 | > 10 | Hela CellCycMod PI S Phase IC50/EC50 (HeLa cells): > 10 µM
6 | Cc1cc(CC(C)CC(C)(C)C)n(O)c(=O)c1 (centres unmarked) [NCGC00167586-03] | 0.5913 | > 20 | – | – | > 10 | > 10 | > 10 | 0.1332 | Hela CellCycMod PI S Phase IC50/EC50 (HeLa cells): > 10 µM
7 | COc1cc([C@@H]2c3cc4c(cc3[C@@H](O[C@@H]3O[C@@H]5CO[C@@H](C)O[C@@H]5[C@H](O)[C@@H]3O)[C@H]3COC(=O)[C@H]23)OCO4)cc(OC)c1O [NCGC00179504-05] | > 20 | > 20 | 0.9666 | 0.1091 | – | – | – | – | –
8 | Cc1nc(Nc2ncc(C(=O)Nc3c(C)cccc3Cl)s2)cc(N2CCN(CCO)CC2)n1 [NCGC00181129-06] | 0.1044 | 0.0067 | > 10 | > 10 | > 10 | > 10 | > 10 | 0.8748 | –
9 | Clc1cc(Cl)c(OCC#CI)cc1Cl [NCGC00181134-02] | > 20 | > 20 | > 10 | > 10 | – | – | – | – | –
10 | C=CC(=O)Nc1cc2c(Nc3ccc(F)c(Cl)c3)ncnc2cc1OCCCN1CCOCC1 [NCGC00182713-01] | 1.0017 | 9.4628 | – | – | 8.8729 | > 10 | 4.2934 | 2.0936 | Hela CellCycMod PI S Phase IC50/EC50 (HeLa cells): > 10 µM
11 | CCCCCCCCCCCCCC[N+](C)(C)Cc1ccccc1 [NCGC00187943-02] | > 20 | > 20 | 8.357 | 3.0091 | – | – | – | – | –
12 | CN1CC[C@H](c2c(O)cc(O)c3c(=O)cc(-c4ccccc4Cl)oc23)[C@H](O)C1.Cl [NCGC00250401-02] | 0.1905 | 0.4611 | 0.3284 | 0.1138 | > 10 | > 10 | 0.0807 | 0.0212 | –
13 | O.O.O.O.O=C1OC2(c3cc(Br)c([O-])cc3Oc3c2cc(Br)c([O-])[c]3[Hg])c2ccccc21.[Na+].[Na+] (centres unmarked) [NCGC00262588-02] | 16.8578 | > 20 | – | – | – | – | – | – | –
14 | Cc1c2oc3c(C)ccc(C(=O)N[C@@H]4C(=O)N[C@H](C(C)C)C(=O)N5CCC[C@H]5C(=O)N(C)CC(=O)N(C)[C@@H](C(C)C)C(=O)O[C@@H]4C)c3nc-2c(C(=O)N[C@@H]2C(=O)N[C@H](C(C)C)C(=O)N3CCC[C@H]3C(=O)N(C)CC(=O)N(C)[C@@H](C(C)C)C(=O)O[C@@H]2C)c(N)c1=O [NCGC00271789-02] (I: T[dV]P[Sar][NMeV] / II: T[dV]P[Sar][NMeV]; ester I:1-I:C, II:1-II:C; linker I:N-II:N via Actinocin(9to1)) | 0.037 | 0.0015 | 0.04031 | 0.001 | – | – | – | – | –
15 | Cc1ccc([N+](=O)[O-])[c]2c1[O][Hg]2 [nitromersol, reference compound] | – | – | – | – | – | – | – | – | IC50 (hp70S6K1 (RPS6KB1)): > 20 µM; IC50 (Colo320): 0.935 µM; IC50 [5]: > 20 µM; activity in NCI-H716 GLP-1 secretion assay (in words) (NCI-H716 cells): potent actives; EC50 (NCI-H716 cells; IC50 / EC50, NCI-H716, read-out: GLP 1 Secretion): 0.0972 µM; IC50 (hJAK2): > 20 µM; activity in STC-1 GLP-1 secretion assay (in words) (STC-1 cell line): potent actives; IC50 (SW480): 1.13 µM; EC50 ([1]; IC50 / EC50, C2C12 beta-catenin translocation, read-out: Wnt Pathway): 0.155 µM; IC50 (hFLT3): 10.4 µM; IC50 (DLD-1): 1.62 µM; IC50 (hKDR): 16.8 µM; IC50 (SNU-C1): 0.202 µM; IC50 (hGSK3b): 8.37 µM; IC50 (HCT116): 2.83 µM; EC50 (HeLa cells; IC50 / EC50, HeLa, read-out: CellCycle G2/M): > 10 µM; IC50 ([4]; IC50 / EC50, endothelial tube area, ADSC/ECFC co-culture, read-out: Anti-Angiogenesis): 0.668 µM; IC50 (HT-29): 1.44 µM; EC50 (INS-1E cells): > 20 µM

— publication PMC4503722, “Novel Phenotypic Outcomes Identified for a Public Collection of Approved Drugs from a Publicly Accessible Panel of Assays” (PLoS ONE, 2015)
